Measurements reported in publication PMC11474028, “Lipopeptide antibiotics disrupt interactions of undecaprenyl phosphate with UptA” (Proceedings of the National Academy of Sciences of the …, 2024).
“Also recorded” adds a separate entry of the source.

How the values were obtained:
MraY = type: binding, Aquifex aeolicus; conditions: MraY (2.5 µM) and C55-P (10 µM), molar ratio 1:4, pH 8.0 vs pH 5.0; negative control
Source text: UptA is a member of the DedA family of transporters whose cellular functions are potentially driven by proton-motive force and provide conditional fitness to bacteria under alkaline conditions ([25], [26], [36]). […] To this end, we equilibrated C55-P with UptA at a protein/ligand molar ratio of 1:4 in a buffer of the same composition but at pH 8.0 and 5.0. […] As a negative control, we tested for pH sensitivity of C55-P binding to MraY, the latter being the downstream enzyme in the peptidoglycan pathway that couples UM5 to C55-P. To this end, we equilibrated MraY and C55-P at a molar ratio of 1:4 in a buffer of pH 8.0 and pH 5.0.

UptA Q64A = assay: Native MS of C55-P binding to UptA mutant Q64A; parameters: species or system Bacillus subtilis; conditions: 5 µM protein, 10 µM C55-P, pH 8.02, 0.05% LDAO, 200 mM ammonium acetate, collisional activation 100 V; three biological replicates
Source text: Conserved arginine residues in the putative membrane reentrant loops of E. coli DedA proteins YqjA (R130) and YghB (R136) are important for the cellular role of these proteins ([36]). […] How these residues impact substrate interactions, however, is not known. Based on the model structure of UptA predicted by AlphaFold, the R112 residue should engage Q64 while R118 is able to form hydrogen bonds with E32, H119, and W146 to potentially stabilize the membrane reentrant loops (Fig. 3A). To test for the impact of these residues on C55-P binding, we generated the E32A, Q64A, R112A, R118A, H119A, and W146A UptA single mutants. After purification of the proteins, using the same protocol as the wild type (WT) (Materials and Methods and SI Appendix, Fig. S5), we equilibrated aliquots of each protein variant (5 µM) with C55-P (10 µM) and recorded spectra using the same instrument settings. […] We additionally generated a double mutant R112E/R118E in which the polarity of both native arginine residues in the wild type are reversed.
Expression and purification of UptA
Plasmids were used to transform chemically competent E. coli C43(DE3) cells (Lucigen) and selected on LB/Agar containing 100 μg/ml ampicillin at 37 °C. Single colonies were used to inoculate 60 mL LB containing 100 μg/ml ampicillin and were grown at 37 °C overnight for 16 h. […]

## CC(C)=CCC/C(C)=C/CC/C(C)=C/CC/C(C)=C\CC/C(C)=C\CC/C(C)=C\CC/C(C)=C\CC/C(C)=C\CC/C(C)=C\CC/C(C)=C\CC/C(C)=C\COP(=O)(O)O [C55-P, undecaprenyl phosphate]
MraY
  pH sensitivity of C55-P binding to MraY (in words): no pH-dependency in C55-P binding by MraY; also recorded: no significant difference in the intensity of C55-P bound to MraY at pH 8.0 and at pH 5.0
UptA Q64A
  reduction in C55-P binding intensity compared to wild type, Q64A (in words): modest reduction
